According to ChEMBL document CHEMBL1152465, “Comparative evaluation of the inhibitory activities of a series of pyrimidinedione congeners that inhibit human immunodeficiency virus types 1 and 2” (Antimicrob Agents Chemother, 2008):
Active and inactive are the calls of the source. How the calls were made is not given here.

Assays:
[1] = system: Human immunodeficiency virus 1; assay: Antiviral activity against HIV1 infected in human HeLa cells expressing CD4-LTR assessed as inhibition of viral entry-related beta galactosidase expression treated for 2 hrs followed by drug wash out measured after 48 hrs by MAGI assay; assay type: functional, organism-based; conditions: Human immunodeficiency virus 1, HeLa
[2] = system: Human immunodeficiency virus 2; assay: Inhibition of HIV2 reverse transcriptase
[3] = system: Human immunodeficiency virus 2; assay: Antiviral activity against HIV2 assessed as inhibition of viral replication treated at time points after viral entry into host cells; assay type: functional, organism-based
[4] = molecular target: Human immunodeficiency virus type 1 reverse transcriptase (Human immunodeficiency virus 1, UniProt Q72547); assay: Inhibition of wild type HIV1 reverse transcriptase assessed as 32P-labeled GMP incorporation into nascent DNA strand
[5] = system: Human immunodeficiency virus 1; assay: Antiviral activity against HIV1 RF infected in human CEM-SS cells assessed as inhibition of virus-induced cytopathic effect by XTT assay; assay type: functional, organism-based; conditions: Human immunodeficiency virus 1, RF
[6] = system: Human immunodeficiency virus 1; assay: Antiviral activity against HIV1 infected in human CEM-SS cells assessed as inhibition of viral replication and virus-induced cytopathic effect by dose-response curve analysis; assay type: functional; conditions: Human immunodeficiency virus 1, CEM-SS
[7] = system: Human immunodeficiency virus 2; assay: Antiviral activity against HIV2 assessed as inhibition of viral single round replication at early time point; assay type: functional, organism-based
[8] = Cytotoxicity against human CEM-SS cells by XTT assay; assay type: cell-based; conditions: read-out: TC50 (the source's name)
[9] = system: Human immunodeficiency virus 2; assay: Inhibition of HIV2 reverse transcriptase assessed as 32P-labeled GMP incorporation into nascent DNA strand at highest concentration
[10] = Therapeutic index, ratio of TC50 human HeLa cells expressing CD4-LTR to EC50 for HIV1 entry inhibition in human HeLa cells expressing CD4-LTR; assay type: cell-based; conditions: read-out: TI
[11] = Cytotoxicity against human HeLa cells expressing CD4-LTR by XTT assay; assay type: cell-based; conditions: read-out: TC50 (the source's name)
[12] = Therapeutic index, ratio of TC50 for human CEM-SS cells to EC50 for HIV2 ROD infected in human CEM-SS cells; assay type: cell-based; conditions: CEM-SS cells, read-out: TI
[13] = system: Human immunodeficiency virus 2; assay: Antiviral activity against HIV2 ROD infected in human CEM-SS cells assessed as inhibition of virus-induced cytopathic effect by XTT assay; assay type: functional, organism-based, ISOLATE ROD; conditions: Human immunodeficiency virus 2, ISOLATE ROD, CEM-SS; read-out: EC50
[14] = Therapeutic index, ratio of TC50 for human CEM-SS cells to EC50 for HIV1 RF infected in human CEM-SS cells; assay type: cell-based; conditions: read-out: TI
[15] = system: Human immunodeficiency virus 2; assay: Antiviral activity against HIV2 infected in human CEM-SS cells assessed as inhibition of viral replication and virus-induced cytopathic effect by dose-response curve analysis; assay type: functional; conditions: Human immunodeficiency virus 2, CEM-SS
[16] = molecular target: Human immunodeficiency virus type 1 reverse transcriptase (Human immunodeficiency virus 1, UniProt Q72547, K103N); assay: Inhibition of HIV1 reverse transcriptase K103N mutant assessed as 32P-labeled GMP incorporation into nascent DNA strand

Row | SMILES | EC50 [1] [µM] | Activity [2] | Activity [3] | IC50 [4] [µM] | EC50 [5] [µM] | EC99 [6] [µM] | Activity [7] | CC50 [8] [µM] | Activity [9] | selectivity ratio [10] | CC50 [11] [µM] | selectivity ratio [12] | EC50 [13] [µM] | selectivity ratio [14] | EC99 [15] [µM] | IC50 [16] [µM]
1 | CCc1c(C(=O)c2cc(C)cc(C)c2)n(CC2CC2)c(=O)[nH]c1=O | 0.006 | inactive | inactive | 0.178 | 0.0096 | 0.01 | Active | 1200 | inactive | 197000 | 1210 | 2650 | 0.5 | 125000 | 100 | 1.78
2 | CCc1c(Sc2cc(C)cc(C)c2)n(CC2CCC2)c(=O)[nH]c1=O | 0.11 | inactive | inactive | 0.02 | 0.0123 | 1 | Active | 27 | inactive | 4610 | 509 | 16.3 | 1.7 | 80800 | 40 | > 290
3 | CCc1c(Oc2cc(C)cc(C)c2)n(CC2CCC2)c(=O)[nH]c1=O | 0.3 | inactive | inactive | 0.235 | 0.022 | 1 | Active | 1200 | inactive | 3960 | 1200 | > 172 | 7.2 | 54200 | > 100 | 0.289
4 | CCc1c(Oc2cc(C)cc(C)c2)n(CC2CC=CC2)c(=O)[nH]c1=O | 0.09 | inactive | inactive | 0.38 | 0.0071 | 0.2 | Active | 1200 | inactive | 6850 | 630 | > 3.2 | 19 | 170000 | > 100 | 5.1
5 | Cc1cc(C)cc(Sc2c(C(C)C)c(=O)[nH]c(=O)n2CC2=CCCC2)c1 | 0.009 | inactive | inactive | 0.079 | 0.005 | 0.0003 | Active | 29.4 | inactive | 3270 | 29.4 | 57.4 | 0.5 | 5920 | 1 | > 270
6 | Cc1cc(C)cc(Oc2c(C(C)C)c(=O)[nH]c(=O)n2CC2CC2)c1 | 0.27 | inactive | inactive | 0.012 | 0.0018 | – | Active | 19.5 | inactive | 86 | 23.4 | 40 | 0.5 | 15500 | 1 | 0.067
7 | CCc1c(Sc2cc(C)cc(C)c2)n(CC2CCCCC2)c(=O)[nH]c1=O | 0.05 | inactive | inactive | 0.152 | 0.134 | 1 | Active | 71.7 | inactive | 1320 | 71.7 | 2.7 | 26.9 | 534 | – | > 268
8 | CCc1c(C(=O)c2cc(C)cc(C)c2)n(CCC2CC=CC2)c(=O)[nH]c1=O | 1.25 | inactive | inactive | 0.018 | 0.013 | 1 | Active | 13.4 | inactive | 36 | 45 | 8.8 | 1.5 | 5660 | – | 1.9
9 | CC(C)c1c(C(=O)c2ccccc2)n(CC2CC=CC2)c(=O)[nH]c1=O | 0.8 | inactive | inactive | 0.18 | 0.0059 | 1 | Active | 1180 | inactive | 1480 | 1180 | > 65.5 | 18.1 | 200000 | – | > 295
10 | Cc1cc(C)cc(Oc2c(C(C)C)c(=O)[nH]c(=O)n2CC2CCCCC2)c1 | 0.84 | inactive | inactive | 0.143 | 0.0049 | 1 | Active | 13.2 | inactive | 41 | 34.4 | 8.4 | 1.6 | 11400 | – | 11.9
11 | Cc1cc(C)cc(C(=O)c2c(C(C)C)c(=O)[nH]c(=O)n2CC2CCC2)c1 | 0.06 | inactive | inactive | 0.068 | 0.012 | 1 | Active | 34.2 | inactive | 606 | 34.2 | 86.4 | 0.4 | 2870 | – | 1.81
12 | CCc1c(Oc2cc(C)cc(C)c2)n(CCC2CC=CC2)c(=O)[nH]c1=O | 1.95 | inactive | inactive | 1.14 | 0.23 | 1 | Active | 1100 | inactive | 570 | 1110 | > 734 | 1.5 | 4870 | – | 9.8
13 | CCc1c(Sc2cc(C)cc(C)c2)n(CC2CC=CC2)c(=O)[nH]c1=O | 0.26 | inactive | inactive | 0.21 | 0.0066 | 1 | Active | 18.3 | inactive | 148 | 38.9 | 38.2 | 0.5 | 9060 | – | 2.4
14 | Cc1cc(C)cc(Sc2c(C(C)C)c(=O)[nH]c(=O)n2CC2CCC2)c1 | 0.28 | inactive | inactive | 0.02 | 0.00016 | 1 | Active | 6.1 | inactive | 37 | 10.4 | 3.9 | 1.6 | 9290 | – | 182
15 | Cc1cc(C)cc(Oc2c(C(C)C)c(=O)[nH]c(=O)n2CC2=CCCC2)c1 | 0.18 | inactive | inactive | 0.032 | 0.001 | 1 | Active | 16.4 | inactive | 116 | 20.5 | 32.2 | 0.5 | 23500 | – | 2.2
16 | Cc1cc(C)cc(Sc2c(C(C)C)c(=O)[nH]c(=O)n2CCC2C=CCC2)c1 (stereo not given) | 0.009 | inactive | inactive | 0.246 | 0.021 | 1 | Active | 25.8 | inactive | 3650 | 31.9 | 5.4 | 4.8 | 1850 | – | > 260
17 | CCc1c(Oc2cc(C)cc(C)c2)n(CCC2=CCCC2)c(=O)[nH]c1=O | 2.62 | inactive | inactive | 10.3 | 0.42 | 1 | Active | 1100 | inactive | 424 | 1110 | > 39.7 | 28.2 | 2600 | – | 247
